Data on one compound can be found in patent publication US20240269146A1, “USE OF PELABRESIB FOR TREATING ANEMIAS” (Constellation Pharmaceuticals, Inc., priority 2021, published 2024).

Structures are written as SMILES. “Also recorded” adds a separate entry of the source.

The experiment in a line: Pelabresib Form A monohydrate administered to human subjects with myelofibrosis, with or without ruxolitinib (FIG. 1). The class given is in vivo. The conditions noted are these: median starting dose 125 mg QD, max 225 mg QD, median duration 47 weeks. As for the experimental part:
Pelabresib Form A monohydrate was administered to human subjects (with or without ruxolitinib) with a median starting dose of 125 mg QD and a max dose of 225 mg QD for a median duration of 47 weeks. The results of this study are shown in FIG. 1 (Arm 1 being pelabresib Form A and Arm 2 being pelabresib Form A in combination with ruxolitinib).

On to `Cc1noc2c1-c1ccccc1C(c1ccc(Cl)cc1)=N[C@H]2CC(N)=O` [pelabresib, 2-((4S)-6-(4-chlorophenyl)-1-methyl-4H-benzo[c]isoxazolo[4,5-e]azepin-4-yl)acetamide], for which the hemoglobin entry is reported as “improving hemoglobin” and the “reticulocyte count (number of reticulocytes)” value is reported as “increases the number of reticulocytes; also recorded: effective in increasing reticulocytes”.
